test system: HepG2-A16-CD81EGFP cells; assay: cells; conditions: Homo sapiens, HepG2, read-out: HepG2 Tox% @ 50 uM rep1

| SMILES | cytotoxicity at 50 µM [%] |
| --- | --- |
| O=C(Nc1ccc(-c2nc3cc(NC(=O)c4ccc(Cl)cc4)ccc3[nH]2)cc1)c1ccc(Cl)cc1 [MMV006962] | 96 |
| COc1ccccc1CNC(=O)CCn1c(=O)[nH]c2ccsc2c1=O [MMV019066] | -14 |
| O=C(Nc1cccc(C(F)(F)F)c1)c1cc(Cl)ccc1O [MMV665807] | 98 |
| COc1ccc(C2=C(c3ccc(OC)cc3)C3(c4ccccc4)C(=O)C2(c2ccccc2)C2C(=O)N(c4ccc(C)cc4)C(=O)C23)cc1 (centres unmarked) [MMV666101] | 0.41 |

same assay, conditions: Homo sapiens, HepG2, read-out: HepG2 Tox% @ 50 uM rep2

| SMILES | cytotoxicity at 50 µM [%] |
| --- | --- |
| COc1ccccc1CNC(=O)CCn1c(=O)[nH]c2ccsc2c1=O [MMV019066] | -5.32 |
| O=C(Nc1cccc(C(F)(F)F)c1)c1cc(Cl)ccc1O [MMV665807] | 99 |
| COc1ccc(C2=C(c3ccc(OC)cc3)C3(c4ccccc4)C(=O)C2(c2ccccc2)C2C(=O)N(c4ccc(C)cc4)C(=O)C23)cc1 (centres unmarked) [MMV666101] | 3.59 |

same assay, conditions: Homo sapiens, HepG2, read-out: Tox IC50

| SMILES | IC50 [µM] |
| --- | --- |
| O=C(Nc1ccc(-c2nc3cc(NC(=O)c4ccc(Cl)cc4)ccc3[nH]2)cc1)c1ccc(Cl)cc1 [MMV006962] | 9.2 |
| COc1ccccc1CNC(=O)CCn1c(=O)[nH]c2ccsc2c1=O [MMV019066] | > 10 |
| O=C(Nc1cccc(C(F)(F)F)c1)c1cc(Cl)ccc1O [MMV665807] | 0.91 |
| COc1ccc(C2=C(c3ccc(OC)cc3)C3(c4ccccc4)C(=O)C2(c2ccccc2)C2C(=O)N(c4ccc(C)cc4)C(=O)C23)cc1 (centres unmarked) [MMV666101] | > 10 |

same assay, conditions: Homo sapiens, HepG2, read-out: Tox max inhibition (%) @ 10 uM

| SMILES | inhibition at 10 µM [%] |
| --- | --- |
| COc1ccccc1CNC(=O)CCn1c(=O)[nH]c2ccsc2c1=O [MMV019066] | -2.17 |
| COc1ccc(C2=C(c3ccc(OC)cc3)C3(c4ccccc4)C(=O)C2(c2ccccc2)C2C(=O)N(c4ccc(C)cc4)C(=O)C23)cc1 (centres unmarked) [MMV666101] | 1.34 |

same assay, conditions: Homo sapiens, HepG2, read-out: Tox max inhibition (%) @ 50 uM

| SMILES | inhibition at 50 µM [%] |
| --- | --- |
| O=C(Nc1ccc(-c2nc3cc(NC(=O)c4ccc(Cl)cc4)ccc3[nH]2)cc1)c1ccc(Cl)cc1 [MMV006962] | 99 |
| O=C(Nc1cccc(C(F)(F)F)c1)c1cc(Cl)ccc1O [MMV665807] | 94 |

test system: P. falciparum 3D7 parasites; assay: Asexual erythrocytic-stage SYBR Green I proliferation assay, 1536-well; format: cell-based, Plasmodium falciparum; conditions: Plasmodium falciparum, 3D7, read-out: P. falciparum (blood) IC50, Table S1, validation set of 50 antimalarials

| SMILES | IC50 [µM] |
| --- | --- |
| Cc1cc(NS(=O)(=O)c2ccc(N)cc2)no1 [Sulfamethoxazole] | > 10 |
| COc1cc(Cc2cnc(N)nc2N)cc(OC)c1OC [Trimethoprim] | 5.64 |

same assay, conditions: read-out: P. falciparum (blood) IC50; Table S1, validation set of 50 antimalarials

| SMILES | IC50 [µM] |
| --- | --- |
| OC(c1cc(C(F)(F)F)nc2c(C(F)(F)F)cccc12)C1CCCCN1 (racemic) [Mefloquine (Racemic), Mefloquine, reference compound] | < 0.0004 |
| CCCCC[C@H]1CN[C@H](C(=O)N[C@H]([C@H]2O[C@H](SC)[C@H](O)[C@@H](O)[C@H]2O)[C@@H](C)Cl)C1 (relative stereo) [Cis-Mirincamycin, reference compound] | 7.56 |

test system: Plasmodium berghei (Pb-Luc) exoerythrocytic-stage parasites; assay: not given; conditions: read-out: P. berghei (liver) IC50; Table S1, validation set of 50 antimalarials; Pb-Luc

| SMILES | IC50 [µM] |
| --- | --- |
| OC(c1cc(C(F)(F)F)nc2c(C(F)(F)F)cccc12)C1CCCCN1 (racemic) [Mefloquine (Racemic), Mefloquine, reference compound] | 3.06 |
| CCCCC[C@H]1CN[C@H](C(=O)N[C@H]([C@H]2O[C@H](SC)[C@H](O)[C@@H](O)[C@H]2O)[C@@H](C)Cl)C1 (relative stereo) [Cis-Mirincamycin, reference compound] | > 12.5 |

test system: Plasmodium cynomolgi exoerythrocytic-stage small (hypnozoites) and large (liver stage schizonts) parasites; assay: P. cynomolgi liver assay in primary hepatocytes; conditions: Plasmodium cynomolgi, Hepatocyte, read-out: % inhibition normalized to untreated control, Large

| SMILES | inhibition at 0.1 µM [%] | inhibition at 1 µM [%] | inhibition at 10 µM [%] |
| --- | --- | --- | --- |
| O=C(Nc1ccc(-c2nc3cc(NC(=O)c4ccc(Cl)cc4)ccc3[nH]2)cc1)c1ccc(Cl)cc1 [MMV006962] | 34 | 25 | 10 |
| COc1ccccc1CNC(=O)CCn1c(=O)[nH]c2ccsc2c1=O [MMV019066] | 3 | -2 | 5 |
| O=C(Nc1cccc(C(F)(F)F)c1)c1cc(Cl)ccc1O [MMV665807] | 6 | 10 | 12 |
| COc1ccc(C2=C(c3ccc(OC)cc3)C3(c4ccccc4)C(=O)C2(c2ccccc2)C2C(=O)N(c4ccc(C)cc4)C(=O)C23)cc1 (centres unmarked) [MMV666101] | 7 | 11 | 17 |

same assay, conditions: Plasmodium cynomolgi, Hepatocyte, read-out: % inhibition normalized to untreated control, Small

| SMILES | inhibition at 0.1 µM [%] | inhibition at 1 µM [%] | inhibition at 10 µM [%] |
| --- | --- | --- | --- |
| O=C(Nc1ccc(-c2nc3cc(NC(=O)c4ccc(Cl)cc4)ccc3[nH]2)cc1)c1ccc(Cl)cc1 [MMV006962] | -8 | 11 | 17 |
| COc1ccccc1CNC(=O)CCn1c(=O)[nH]c2ccsc2c1=O [MMV019066] | 10 | 11 | 3 |
| O=C(Nc1cccc(C(F)(F)F)c1)c1cc(Cl)ccc1O [MMV665807] | 17 | 34 | 24 |
| COc1ccc(C2=C(c3ccc(OC)cc3)C3(c4ccccc4)C(=O)C2(c2ccccc2)C2C(=O)N(c4ccc(C)cc4)C(=O)C23)cc1 (centres unmarked) [MMV666101] | 4 | 19 | 11 |

test system: Plasmodium berghei (Pb-Luc) exoerythrocytic-stage parasites; assay: microbe, parasite or virus in culture; conditions: read-out: Inhibition% @ 50 uM rep1

| SMILES | inhibition at 50 µM [%] |
| --- | --- |
| O=C(Nc1ccc(-c2nc3cc(NC(=O)c4ccc(Cl)cc4)ccc3[nH]2)cc1)c1ccc(Cl)cc1 [MMV006962] | 103 |
| COc1ccccc1CNC(=O)CCn1c(=O)[nH]c2ccsc2c1=O [MMV019066] | 94 |
| O=C(Nc1cccc(C(F)(F)F)c1)c1cc(Cl)ccc1O [MMV665807] | 103 |
| COc1ccc(C2=C(c3ccc(OC)cc3)C3(c4ccccc4)C(=O)C2(c2ccccc2)C2C(=O)N(c4ccc(C)cc4)C(=O)C23)cc1 (centres unmarked) [MMV666101] | 96 |

same assay, conditions: read-out: Inhibition% @ 50 uM rep2

| SMILES | inhibition at 50 µM [%] |
| --- | --- |
| O=C(Nc1ccc(-c2nc3cc(NC(=O)c4ccc(Cl)cc4)ccc3[nH]2)cc1)c1ccc(Cl)cc1 [MMV006962] | 103 |
| COc1ccccc1CNC(=O)CCn1c(=O)[nH]c2ccsc2c1=O [MMV019066] | 95 |
| O=C(Nc1cccc(C(F)(F)F)c1)c1cc(Cl)ccc1O [MMV665807] | 103 |
| COc1ccc(C2=C(c3ccc(OC)cc3)C3(c4ccccc4)C(=O)C2(c2ccccc2)C2C(=O)N(c4ccc(C)cc4)C(=O)C23)cc1 (centres unmarked) [MMV666101] | 100 |

same assay, conditions: read-out: PbLuc IC50, dose response, 1/3 dilutions, max conc. 10 or 50 uM, unit inferred

| SMILES | IC50 [nM] |
| --- | --- |
| O=C(Nc1ccc(-c2nc3cc(NC(=O)c4ccc(Cl)cc4)ccc3[nH]2)cc1)c1ccc(Cl)cc1 [MMV006962] | 501 |
| COc1ccccc1CNC(=O)CCn1c(=O)[nH]c2ccsc2c1=O [MMV019066] | 56.1 |
| O=C(Nc1cccc(C(F)(F)F)c1)c1cc(Cl)ccc1O [MMV665807] | 210 |
| COc1ccc(C2=C(c3ccc(OC)cc3)C3(c4ccccc4)C(=O)C2(c2ccccc2)C2C(=O)N(c4ccc(C)cc4)C(=O)C23)cc1 (centres unmarked) [MMV666101] | 201 |

same assay, conditions: read-out: PbLuc max inhibition (%) @ 10 uM

| SMILES | inhibition at 10 µM [%] |
| --- | --- |
| COc1ccccc1CNC(=O)CCn1c(=O)[nH]c2ccsc2c1=O [MMV019066] | 104 |
| COc1ccc(C2=C(c3ccc(OC)cc3)C3(c4ccccc4)C(=O)C2(c2ccccc2)C2C(=O)N(c4ccc(C)cc4)C(=O)C23)cc1 (centres unmarked) [MMV666101] | 106 |

same assay, conditions: read-out: PbLuc max inhibition (%) @ 50 uM

| SMILES | inhibition at 50 µM [%] |
| --- | --- |
| O=C(Nc1ccc(-c2nc3cc(NC(=O)c4ccc(Cl)cc4)ccc3[nH]2)cc1)c1ccc(Cl)cc1 [MMV006962] | 99 |
| O=C(Nc1cccc(C(F)(F)F)c1)c1cc(Cl)ccc1O [MMV665807] | 101 |

biological target: QuantiLum Recombinant Luciferase (Photinus pyralis, UniProt P08659); assay: Bioluminescence quantification of compound luciferase inhibition; conditions: not given
Sequence (P08659 whole entry): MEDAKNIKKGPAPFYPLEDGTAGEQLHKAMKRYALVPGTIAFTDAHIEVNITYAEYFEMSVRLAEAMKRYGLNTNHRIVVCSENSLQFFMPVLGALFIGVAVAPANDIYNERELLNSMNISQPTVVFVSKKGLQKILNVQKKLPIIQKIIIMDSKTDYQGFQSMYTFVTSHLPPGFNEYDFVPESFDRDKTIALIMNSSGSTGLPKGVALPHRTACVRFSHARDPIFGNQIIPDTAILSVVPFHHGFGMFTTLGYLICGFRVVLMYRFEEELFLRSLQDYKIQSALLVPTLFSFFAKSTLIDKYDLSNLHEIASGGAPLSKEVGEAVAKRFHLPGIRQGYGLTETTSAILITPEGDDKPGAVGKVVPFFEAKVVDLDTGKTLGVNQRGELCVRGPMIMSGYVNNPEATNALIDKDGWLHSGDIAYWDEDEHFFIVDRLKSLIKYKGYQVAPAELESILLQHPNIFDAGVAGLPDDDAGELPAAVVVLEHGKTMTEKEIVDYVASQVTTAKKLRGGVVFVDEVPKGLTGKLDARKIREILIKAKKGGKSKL

| SMILES | IC50 [µM] |
| --- | --- |
| COc1ccccc1CNC(=O)CCn1c(=O)[nH]c2ccsc2c1=O [MMV019066] | > 20 |
| COc1ccc(C2=C(c3ccc(OC)cc3)C3(c4ccccc4)C(=O)C2(c2ccccc2)C2C(=O)N(c4ccc(C)cc4)C(=O)C23)cc1 (centres unmarked) [MMV666101] | > 20 |

same assay, conditions: read-out: LucInhib max inhibition

| SMILES | Emax [%] |
| --- | --- |
| COc1ccccc1CNC(=O)CCn1c(=O)[nH]c2ccsc2c1=O [MMV019066] | 21 |
| COc1ccc(C2=C(c3ccc(OC)cc3)C3(c4ccccc4)C(=O)C2(c2ccccc2)C2C(=O)N(c4ccc(C)cc4)C(=O)C23)cc1 (centres unmarked) [MMV666101] | 18 |

Source: article PMC4890880 (ACS infectious diseases, 2016)
